Reference: patent publication US20260042764A1, “COMPOSITIONS AND METHODS FOR INHIBITION OF KRAS” (TheRas, Inc., priority 2022, published 2026)

What follows are molecules tested on HCT116 cells (KRAS G13D) (assay: 3D Cell viability assay in HCT116 cells (Biological Example 6)). Details: Homo sapiens, HCT-116; HCT116 (KRAS G13D) spheroids, 72 hours.
Format: cell-based
Method in brief: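 Spheroids were formed from 1000 cells/well in ultra-low attachment plates over 48 h at 37 °C in medium with 10% FBS, then exposed to a 9-point, three-fold compound dilution series (0.25% DMSO) for 72 h. Viability was read by CellTiter-Glo 3D luminescence; EC50 from four-parameter variable-slope fit.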

Row | IC50 [µM] | SMILES
1 | 0.1 to 1 | CCN(c1nc(OC[C@@]23CCCN2C[C@H](F)C3)nc2c(F)c(-c3ccc(F)c4sc(N)c(C#N)c34)c(C(F)(F)F)cc12)[C@H]1CCS(=O)(=O)C1 (atropisomer, axis not shown) [Compound 492]
2 | 0.1 to 1 | CCN(c1nc(OC[C@@]23CCCN2C[C@H](F)C3)nc2c(F)c(-c3ccc(F)c4sc(N)c(C#N)c34)c(C(F)(F)F)cc12)[C@H]1CCN(C(=O)OC)C1 (atropisomer, axis not shown) [Compound 541, methyl(3S)-3-[[7-(2-amino-3-cyano-7-fluoro-benzothiophen-4-yl)-8-fluoro-2-[[(2R,8S)-2-fluoro-1,2,3,5,6,7-hexahydropyrrolizin-8-yl]methoxy]-6-(trifluoromethyl)quinazolin-4-yl]-ethyl-amino]pyrrolidine-1-carboxylate]

Each molecule was assayed on HT1080 cells (NRAS) (assay: 3D Cell viability assay in HT1080 cells (Biological Example 6)). Details: Homo sapiens, HT-1080; HT1080 (NRAS) spheroids, 72 hours.
Format: cell-based
Description: Biological Example 6: 3D Cell viability assay in AsPC-1, SW1900, HPAC, Capan-2, RKN, H358, HCT116, KP-2, H1573, A549, MKN1, and HT1080 cells
The inhibition of cellular viability as a result of test compound treatment in a spheroid assay was measured using the CellTiter-Glow 3D Cell Viability Assay (Promega).
On Day 1, 1000 cells per well were seeded in 150 μL of complete growth media supplemented with 10% fetal bovine serum (FBS) and incubated at 37° C., in the presence of 5% CO2 in 96-well ultra-low attachment microplates (Corning) for 48 hours undisturbed to allow spheroids to form.
Following spheroid formation, cells were treated with compounds diluted in DMSO at 0.25% final DMSO concentration. Compounds were dosed in a 9-point concentration curve with three-fold dilution between concentrations. Cells were incubated in the presence of compound for 72 hours at 37° C., in the presence of 5% CO2.
Following this incubation period, the kit-provided CTG reagent was allowed to equilibrate for 30 minutes at room temperature, 150 μL of equilibrated CTG reagent was added to each well, and the plate was sealed before shaking at 250 rpm for 10 minutes at room temperature to lyse the cells, 150 μL of lysate per well was transferred to a 96-well plate and luminescence was read on a CLARIOstar plate reader.
Data was imported into the Prism software package (Graphpad) and EC50 values were calculated using the log (inhibitor) vs, response—variable slope (Four parameters) model.

Row | SMILES | IC50 [µM]
3 | CCN(c1nc(OC[C@@]23CCCN2C[C@H](F)C3)nc2c(F)c(-c3ccc(F)c4sc(N)c(C#N)c34)c(C(F)(F)F)cc12)[C@H]1CCN(C(=O)C(C)C)C1 (single isomer, unassigned) [Compound 469] | > 1
4 | Cc1cc2n(n1)CCN(c1nc(OCC34CCCN3CC(F)C4)nc3c(F)c(-c4ccc(F)c5sc(N)c(C#N)c45)c(C(F)(F)F)cc13)C2 (stereo not drawn) [Compound 484] | > 1
5 | CCN(c1nc(OC[C@@]23CCCN2C[C@H](F)C3)nc2c(F)c(-c3ccc(F)c4sc(N)c(C#N)c34)c(C(F)(F)F)cc12)[C@H]1C[C@H](C)N(C(=O)C2CC2)C1 [Compound 470] | > 1
6 | CCOC(=O)N1CC[C@H](N(CC)c2nc(OC[C@@]34CCCN3C[C@H](F)C4)nc3c(F)c(-c4ccc(F)c5sc(N)c(C#N)c45)c(C(F)(F)F)cc23)C1 [Compound 467] | > 1

Now from value to molecule:

Row | IC50 [µM] | SMILES
7 | > 1 | CCC(=O)N1CC[C@@H](N(CC)c2nc(OC[C@@]34CCCN3C[C@H](F)C4)nc3c(F)c(-c4ccc(F)c5sc(N)c(C#N)c45)c(C(F)(F)F)cc23)[C@H]1C (atropisomer, axis not shown) [Compound 523]
8 | > 1 | CCN(c1nc(OC[C@@]23CCCN2C[C@H](F)C3)nc2c(F)c(-c3ccc(F)c4sc(N)c(C#N)c34)c(C(F)(F)F)cc12)[C@H]1CCN(C(=O)N(C)C)C1 (atropisomer, axis not shown) [Compound 540, (3S)-3-[[7-(2-amino-3-cyano-7-fluoro-benzothiophen-4-yl)-8-fluoro-2-[[(2R,8S)-2-fluoro-1,2,3,5,6,7-hexahydropyrrolizin-8-yl]methoxy]-6-(trifluoromethyl)quinazolin-4-yl]-ethyl-amino]-N,N-dimethyl-pyrrolidine-1-carboxamide]
9 | > 1 | CCN(c1nc(OC[C@@]23CCCN2C[C@H](F)C3)nc2c(F)c(-c3ccc(F)c4sc(N)c(C#N)c34)c(C(F)(F)F)cc12)[C@@H]1CCN(C(=O)C2CC2)[C@@H]1C (atropisomer, axis not shown) [Compound 524]
10 | > 1 | CCN(c1nc(OC[C@@]23CCCN2C[C@H](F)C3)nc2c(F)c(-c3ccc(F)c4sc(N)c(C#N)c34)c(C(F)(F)F)cc12)[C@H]1CCS(=O)(=O)C1 (atropisomer, axis not shown) [Compound 492]
11 | > 1 | N#Cc1c(N)sc2c(F)ccc(-c3c(C(F)(F)F)cc4c(N5CCn6nc(N7CCOCC7)cc6C5)nc(OC[C@@]56CCCN5C[C@H](F)C6)nc4c3F)c12 [Compound 485]
12 | > 1 | CCN(c1nc(OC[C@@]23CCCN2C[C@H](F)C3)nc2c(F)c(-c3ccc(F)c4sc(N)c(C#N)c34)c(C(F)(F)F)cc12)[C@H]1CCN(C(=O)OC)C1 (atropisomer, axis not shown) [Compound 541, methyl(3S)-3-[[7-(2-amino-3-cyano-7-fluoro-benzothiophen-4-yl)-8-fluoro-2-[[(2R,8S)-2-fluoro-1,2,3,5,6,7-hexahydropyrrolizin-8-yl]methoxy]-6-(trifluoromethyl)quinazolin-4-yl]-ethyl-amino]pyrrolidine-1-carboxylate]
